Measured values from PubChem BioAssay (NCI).
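Protocol summary: plate cells (96-well), add compound at 5 concentrations, incubate 48 h, interpolate endpoints linearly. GI50 is the concentration that inhibits growth by half. TGI denotes the concentration required for complete inhibition of growth.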

Experiments:
Assay in all cases: NCI anticancer screen, dose series, 48 h
HCT-15 colon = tested on: HCT-15 colon
LOX IMVI melanoma = tested on: LOX IMVI melanoma
MALME-3M melanoma = tested on: MALME-3M melanoma
NCI-H522 lung = tested on: NCI-H522 lung
OVCAR-8 ovarian = tested on: OVCAR-8 ovarian
SF-268 CNS = tested on: SF-268 CNS
SK-OV-3 ovarian = tested on: SK-OV-3 ovarian
TK-10 renal = tested on: TK-10 renal
U251 CNS = tested on: U251 CNS
UACC-62 melanoma = tested on: UACC-62 melanoma

| Structure (SMILES) | TGI (HCT-15 colon) | TGI (LOX IMVI melanoma) | TGI (MALME-3M melanoma) | TGI (NCI-H522 lung) | TGI (OVCAR-8 ovarian) | TGI (SF-268 CNS) | TGI (SK-OV-3 ovarian) | TGI (TK-10 renal) | TGI (U251 CNS) | TGI (UACC-62 melanoma) | GI50 (HCT-15 colon) | GI50 (LOX IMVI melanoma) | GI50 (MALME-3M melanoma) | GI50 (NCI-H522 lung) | GI50 (OVCAR-8 ovarian) | GI50 (SF-268 CNS) | GI50 (SK-OV-3 ovarian) | GI50 (U251 CNS) | GI50 (UACC-62 melanoma) | GI50 (TK-10 renal) |
| --- | --- | --- | --- | --- | --- | --- | --- | --- | --- | --- | --- | --- | --- | --- | --- | --- | --- | --- | --- | --- |
| CCCCCCCCSC(SCCCCCCCC)=C1C(=O)N(c2ccccc2)N=C1C | > 100 µM | 36.2 µM | > 100 µM | 57.1 µM | > 100 µM | > 100 µM | > 100 µM | > 100 µM | 34 µM | > 100 µM | – | – | – | – | – | – | – | – | – | – |
| O=C(/C=C/c1cccs1)Nc1ncc(Cc2ccccc2F)s1 | > 100 µM | > 100 µM | > 100 µM | – | > 100 µM | > 100 µM | > 100 µM | > 100 µM | > 100 µM | > 100 µM | 0.123 µM | 0.18 µM | 0.359 µM | 0.194 µM | 0.508 µM | 0.757 µM | 0.477 µM | 0.35 µM | 0.207 µM | – |
| CCCC/C(C)=N/NC(N)=S | > 100 µM | > 100 µM | > 100 µM | > 100 µM | > 100 µM | > 100 µM | > 100 µM | > 100 µM | > 100 µM | > 100 µM | – | – | – | – | – | – | – | – | – | – |
| COS(=O)CCOC(=O)c1ccccc1SSc1ccccc1C(=O)OCCS(=O)OC (stereo not drawn) | 85.9 µM | 61.6 µM | 63.7 µM | 18.6 µM | 81.2 µM | > 100 µM | > 100 µM | > 100 µM | > 100 µM | 51.5 µM | – | – | – | – | – | – | – | – | – | – |
| CCc1ccc(/C=C2/SC(=S)NC2=O)cc1 | 39.8 µM | > 71.5 µM | > 80.6 µM | 43.8 µM | > 88.8 µM | > 100 µM | 74.9 µM | > 85.4 µM | 62.6 µM | 28.9 µM | 16.9 µM | 22.4 µM | 23.2 µM | 15 µM | 25.9 µM | 24.5 µM | 24.6 µM | 18.7 µM | 12.3 µM | 23.4 µM |
| C=C(C)[C@@H]1CC[C@]2(C#N)CC[C@]3(C)[C@H](CC[C@@H]4[C@@]5(C)CCCNC(C)(C)[C@@H]5CC[C@]43C)[C@@H]12 | 3.05 µM | 3.04 µM | 3.2 µM | 3.61 µM | 3.38 µM | 10.4 µM | 25.4 µM | 4.54 µM | 3.13 µM | 3.6 µM | 1.61 µM | 1.67 µM | 1.61 µM | 1.93 µM | 1.84 µM | 3.11 µM | 11.1 µM | 1.75 µM | 1.96 µM | 2.04 µM |
| COc1cc(Nc2ncc(-c3ccccc3)o2)cc(OC)c1OC | > 25 µM | > 25 µM | > 25 µM | > 25 µM | > 25 µM | > 25 µM | > 25 µM | > 25 µM | > 25 µM | > 25 µM | 0.547 µM | 2.14 µM | 6.29 µM | 0.925 µM | 8.3 µM | 4.73 µM | 2.89 µM | 4.35 µM | 2.24 µM | 1.62 µM |
| C=C1C(=O)O[C@H]2[C@H](OC(C)=O)[C@@H](C)CCC/C(C)=C/CC[C@]3(CO3)[C@H](O)C[C@@H]12 | 3.76 µM | 4.75 µM | 12.3 µM | 20.2 µM | 10.8 µM | 13.6 µM | 21.7 µM | 4.62 µM | 12.4 µM | 25.3 µM | 1.84 µM | 2.07 µM | 2.69 µM | 6.22 µM | 3.06 µM | 3.93 µM | 9.12 µM | 3.71 µM | 12.7 µM | 1.83 µM |
